# Data taken from publication PMC11048244, “Development of Improved Spectrophotometric Assays for Biocatalytic Silyl Ether Hydrolysis” (Biomolecules, 2024).
# System: T1, TF-Silα-Strep (silicatein-α, Silα)
# T1 construct: trigger factor fused at N-terminus, Strep-tag II at C-terminus; recombinant, StrepTrap purified
# Test: UV-VIS spectrophotometric silyl ether hydrolysis, net initial rates
# Assay type: biochemical
# Conditions: 10% v/v 1,4-dioxane, 50 mM Tris, 100 mM NaCl, pH 8.5
# From the text: UV-VIS spectrophotometric silyl ether hydrolysis, net initial rates on TF-Silα-Strep (silicatein-α, Silα)
row,Structure (SMILES),Km [µM]
1,"CC(C)[Si](Oc1ccc([N+](=O)[O-])cc1)(C(C)C)C(C)C [compound 3, 3]",20.4 ± 8.13
2,"Cc1cc(O[Si](C)(C)C(C)(C)C)ccc1[N+](=O)[O-] [compound 5, tert-Butyldimethyl(3-methyl-4-nitrophenoxy)silane]",34.6 ± 4.11
3,"CC(C)C(C)(C)[Si](C)(C)Oc1ccc([N+](=O)[O-])cc1 [compound 2, 2]",24.1 ± 5
4,"Cc1cc([N+](=O)[O-])ccc1O[Si](C)(C)C(C)(C)C [compound 4, tert-Butyldimethyl(2-methyl-4-nitrophenoxy)silane]",72.5 ± 15.3
5,"CC(C)(C)[Si](C)(C)Oc1ccc([N+](=O)[O-])cc1 [compound 1, tert-butyldimethyl(4-nitrophenoxy)silane]",44.4 ± 11.9
